PMC9395504 (Investigational New Drugs, 2022)
Entries after “also recorded” stand apart in the source; their conditions may differ. Like-named read-outs stand apart in the source and are kept apart here. Marks after values point to notes of the source that are not given here.

Legend:
[1] = Safety: adverse events by NCI-CTCAE v4.0, phase 1 study Part 1; assay type: in vivo, human
Procedure: (§1) We defined the dose-limiting toxicity (DLT) period as the first 28 days of each dose-escalation cohort’s treatment cycle (DLT window). […] Non-hematologic DLTs included grade ≥3 nausea, vomiting, or diarrhea enduring >48 hours despite standard medical management, grade 3 fatigue persisting >7 days or grade 4 fatigue, any grade ≥3 metabolic laboratory abnormalities that are not controlled within 48 hours by standard medical management.

[2] = Dose escalation (3+3+3): dose-limiting toxicity and maximum tolerated dose; assay type: in vivo, human; settings: once daily, seven days of a 21-day cycle
Procedure: Trametinib, 2 mg once daily (both Arms), and dabrafenib, 150 mg twice daily (Arm 1 only), were subsequently started on day 8, cycle 1 (Fig. 1). Treatment was administered continuously in consecutive treatment cycles until disease progression, intolerability, or withdrawal of consent.
as §1

[3] = Plasma pharmacokinetics of AMG 232 at steady state (LC-MS/MS, noncompartmental); assay type: in vivo, human; settings: for AUC(0-t): read-out: AUC24hr
Text: The following PK parameters were estimated: maximum observed plasma concentration (Cmax), time to reach Cmax (tmax), area-under-the-plasma concentration-time curve (AUC), terminal phase half-life (t1/2,z), and apparent total body clearance (CL/F). We performed noncompartmental analyses for PK parameter estimation using Phoenix® WinNonlin® version 6.4 or later software (Certara™, Princeton, NJ). […] We prepared descriptive statistics, tables, and graphs using Phoenix® WinNonlin® and Prism version 9.1.1 (GraphPad Software, San Diego, CA).

[4] = system: TP53-WT cancer xenograft models; settings: daily oral administration; cited from earlier work
[5] = system: TP53-WT melanoma cell lines; design: method as in PMID 24810962; settings: combined with inhibitors of PI3K or MAPK signaling pathway; cited from earlier work
[6] = system: p53 pathway; settings: cited from earlier work
[7] = All patients, N=31, attributed to AMG 232 only
[8] = All patients, N=31, attributed to any drug
[9] = human, plasma, oral, 120 mg, Cycle 1 Day 7, AMG 232 monotherapy, Arm 2, 120 mg, geometric mean (CV%)
[10] = human, plasma, oral, 120 mg, Cycle 2 Day 7, co-administered with T + D, Arm 1, 120 mg, geometric mean (CV%)
[11] = human, plasma, oral, 120 mg, Cycle 2 Day 7, co-administered with T, Arm 2, 120 mg, geometric mean (CV%)
[12] = human, plasma, oral, 180 mg, Cycle 1 Day 7, AMG 232 monotherapy, Arm 1, 180 mg, geometric mean (CV%)
[13] = human, plasma, oral, 180 mg, Cycle 2 Day 7, co-administered with T + D, Arm 1, 180 mg, geometric mean (CV%)
[14] = human, plasma, oral, 240 mg, Cycle 1 Day 7, AMG 232 monotherapy, Arm 2, 240 mg, geometric mean (CV%)
[15] = human, plasma, oral, 240 mg, Cycle 2 Day 7, co-administered with T, Arm 2, 240 mg, geometric mean, n = 2

CC(C)[C@@H](CS(=O)(=O)C(C)C)N1C(=O)[C@@](C)(CC(=O)O)C[C@H](c2cccc(Cl)c2)[C@H]1c1ccc(Cl)cc1 [AMG 232]
Share of treatment-emergent AEs attributable to AMG 232 ([1]; 240 of 614 AEs, in 30 subjects): 39% | AEs Grade 1 ([1]; All patients, N=31): 31 (100) N (%) | AEs Grade 2 ([1]; All patients, N=31): 30 (97) N (%) | AEs Grade 3 ([1]; All patients, N=31): 25 (81) N (%) | AEs Grade 4 ([1]; All patients, N=31): 2 (6) N (%) | AEs leading to AMG 232 d/c ([1]; All patients, N=31): 7 (23) N (%) | AEs leading to dabraf d/c ([1]; All patients, N=31): 2 (6) N (%) | Serious AE Adrenal insufficiency ([1]; All patients, N=31): 2 (6) N (%) | Serious AE Anemia ([1]; All patients, N=31): 1 (3) N (%) | Serious AE Cellulitis ([1]; All patients, N=31): 2 (6) N (%) | Serious AE Dehydration ([1]; All patients, N=31): 3 (10) N (%) | Serious AE Diarrhea ([1]; All patients, N=31): 4 (13) N (%) | Serious AE Fatigue ([1]; All patients, N=31): 1 (3) N (%) | Serious AE Hypotension ([1]; All patients, N=31): 1 (3) N (%) | Serious AE Nausea ([1]; All patients, N=31): 5 (16) N (%) | Serious AE Peripheral Edema ([1]; All patients, N=31): 1 (3) N (%) | Serious AE Pulmonary embolism ([1]; All patients, N=31): 5 (16) N (%) | Serious AE Pyrexia ([1]; All patients, N=31): 5 (16) N (%) | Serious AE Seizure ([1]; All patients, N=31): 3 (10) N (%) | Serious AE Thrombocytopenia ([1]; All patients, N=31): 1 (3) N (%) | Serious AE Vomiting ([1]; All patients, N=31): 5 (16) N (%) | AE AST increased [1, 7]: 3 (10) N (%) | AE Abdominal pain [1, 7]: 5 (16) N (%) | AE Adrenal insufficiency [1, 7]: 0 N (%) | AE Anemia [1, 7]: 5 (16) N (%) | AE Cellulitis [1, 7]: 0 N (%) | AE Chills [1, 7]: 2 (6) N (%) | AE Cough [1, 7]: 2 (6) N (%) | AE Decreased appetite [1, 7]: 13 (42) N (%) | AE Dehydration [1, 7]: 1 (3) N (%) | AE Dermatitis acneiform [1, 7]: 3 (10) N (%) | AE Diarrhea [1, 7]: 24 (77) N (%) | AE Dizziness [1, 7]: 3 (10) N (%) | AE Dry mouth [1, 7]: 3 (10) N (%) | AE Dysgeusia [1, 7]: 4 (13) N (%) | AE Dyspepsia [1, 7]: 3 (10) N (%) | AE Fatigue [1, 7]: 23 (74) N (%) | AE Headache [1, 7]: 3 (10) N (%) | AE Hypertension [1, 7]: 2 (6) N (%) | AE Hypotension [1, 7]: 1 (3) N (%) | AE Lipase increased [1, 7]: 4 (13) N (%) | AE Malaise [1, 7]: 4 (13) N (%) | AE Nausea [1, 7]: 27 (87) N (%) | AE Neutropenia [1, 7]: 3 (10) N (%) | AE Peripheral Edema [1, 7]: 1 (3) N (%) | AE Pruritus [1, 7]: 0 N (%) | AE Pulmonary embolism [1, 7]: 2 (6) N (%) | AE Pyrexia [1, 7]: 2 (6) N (%) | AE Rash [1, 7]: 2 (6) N (%) | AE Seizure [1, 7]: 0 N (%) | AE Thrombocytopenia [1, 7]: 3 (10) N (%) | AE Vomiting [1, 7]: 21 (68) N (%) | AE AST increased [1, 8]: 6 (19) N (%) | AE Abdominal pain [1, 8]: 6 (19) N (%) | AE Adrenal insufficiency [1, 8]: 2 (6) N (%) | AE Anemia [1, 8]: 9 (29) N (%) | AE Cellulitis [1, 8]: 2 (6) N (%) | AE Chills [1, 8]: 8 (26) N (%) | AE Cough [1, 8]: 8 (26) N (%) | AE Decreased appetite [1, 8]: 16 (52) N (%) | AE Dehydration [1, 8]: 9 (29) N (%) | AE Dermatitis acneiform [1, 8]: 14 (45) N (%) | AE Diarrhea [1, 8]: 27 (87) N (%) | AE Dizziness [1, 8]: 5 (16) N (%) | AE Dry mouth [1, 8]: 5 (16) N (%) | AE Dysgeusia [1, 8]: 6 (19) N (%) | AE Dyspepsia [1, 8]: 4 (13) N (%) | AE Fatigue [1, 8]: 25 (81) N (%) | AE Headache [1, 8]: 15 (48) N (%) | AE Hypertension [1, 8]: 8 (26) N (%) | AE Hypotension [1, 8]: 8 (26) N (%) | AE Lipase increased [1, 8]: 5 (16) N (%) | AE Malaise [1, 8]: 4 (13) N (%) | AE Nausea [1, 8]: 28 (90) N (%) | AE Neutropenia [1, 8]: 5 (16) N (%) | AE Peripheral Edema [1, 8]: 13 (42) N (%) | AE Pruritus [1, 8]: 11 (35) N (%) | AE Pulmonary embolism [1, 8]: 5 (16) N (%) | AE Pyrexia [1, 8]: 11 (35) N (%) | AE Rash [1, 8]: 7 (23) N (%) | AE Seizure [1, 8]: 3 (10) N (%) | AE Thrombocytopenia [1, 8]: 7 (23) N (%) | AE Vomiting [1, 8]: 22 (71) N (%) | AMG 232-related AE abdominal pain, patients ([1]; all 31 patients): 16% | AMG 232-related AE anemia, patients ([1]; all 31 patients): 16% | AMG 232-related AE decreased appetite, patients ([1]; all 31 patients): 42% | AMG 232-related AE diarrhea, patients ([1]; all 31 patients): 77% | AMG 232-related AE dysgeusia, patients ([1]; all 31 patients): 13% | AMG 232-related AE fatigue, patients ([1]; all 31 patients): 74% | AMG 232-related AE increased lipase, patients ([1]; all 31 patients): 13% | AMG 232-related AE malaise, patients ([1]; all 31 patients): 13% | AMG 232-related AE nausea, patients ([1]; all 31 patients): 87% | AMG 232-related AE vomiting, patients ([1]; all 31 patients): 68% | Patients with serious AMG 232-related AEs ([1]; all 31 patients): 8 patients | Serious AMG 232-related AE diarrhea, patients ([1]; all 31 patients): 10% | Serious AMG 232-related AE nausea, patients ([1]; all 31 patients): 13% | Serious AMG 232-related AE pulmonary embolism, patients ([1]; all 31 patients): 6.5% | Serious AMG 232-related AE vomiting, patients ([1]; all 31 patients): 10% | SAE diarrhea, patients ([1]; all 31 patients, AMG 232 + T±D): 13% | SAE nausea, patients ([1]; all 31 patients, AMG 232 + T±D): 16% | SAE vomiting, patients ([1]; all 31 patients, AMG 232 + T±D): 16% | Treatment-emergent AE acneiform dermatitis, patients ([1]; all 31 patients, AMG 232 + T±D): 45% | Treatment-emergent AE decreased appetite, patients ([1]; all 31 patients, AMG 232 + T±D): 52% | Treatment-emergent AE diarrhea, patients ([1]; all 31 patients, AMG 232 + T±D): 87% | Treatment-emergent AE fatigue, patients ([1]; all 31 patients, AMG 232 + T±D): 81% | Treatment-emergent AE headache, patients ([1]; all 31 patients, AMG 232 + T±D): 48% | Treatment-emergent AE nausea, patients ([1]; all 31 patients, AMG 232 + T±D): 90% | Treatment-emergent AE peripheral edema, patients ([1]; all 31 patients, AMG 232 + T±D): 42% | Treatment-emergent AE pruritus, patients ([1]; all 31 patients, AMG 232 + T±D): 35.5% | Treatment-emergent AE pyrexia, patients ([1]; all 31 patients, AMG 232 + T±D): 35.5% | Treatment-emergent AE vomiting, patients ([1]; all 31 patients, AMG 232 + T±D): 71% | Patients with serious AEs (SAEs) ([1]; all 31 patients, AMG 232 + T±D, 24 patients): 77% | Patients withdrawn/discontinued from AMG 232 due to AEs ([1]; all 31 patients, seven patients): 23% | MTD of AMG 232 combined with dabrafenib plus trametinib ([2]; Arm 1): 120 mg | MTD of AMG 232 combined with trametinib ([2]; Arm 2): 120 mg | AUC24hr ([3]; Cycle 1 Day 7, AMG 232 monotherapy, Arm 1, 120 mg, geometric mean (CV%)): 5140 (59.4%) n = 4 hr•ng/mL | AUC24hr ([3]; Cycle 2 Day 7, co-administered with T, Arm 2, 180 mg, geometric mean (CV%)): 9410 (107.0%)^a n = 5 hr•ng/mL | Effect of trametinib ± dabrafenib on AMG 232 PK exposures (Cmax, AUC24hr) ([3]; cycle 2 day 7 vs cycle 1 day 7, Wilcoxon matched-pairs signed-rank test p>0.05): not significant; also recorded: not significantly altered | Cmax ([3]; human, plasma, oral, 120 mg, Cycle 1 Day 7, AMG 232 monotherapy, Arm 1, 120 mg, geometric mean (CV%)): 491 ng/mL | Cmax [3, 9]: 914 ng/mL | AUC(0-t) [3, 9]: 9810 ng·h/mL | Cmax [3, 10]: 392 ng/mL | AUC(0-t) [3, 10]: 3140 ng·h/mL | Cmax [3, 11]: 630 ng/mL | AUC(0-t) [3, 11]: 6740 ng·h/mL | Cmax [3, 12]: 847 ng/mL | AUC(0-t) [3, 12]: 5890 ng·h/mL | Cmax ([3]; human, plasma, oral, 180 mg, Cycle 1 Day 7, AMG 232 monotherapy, Arm 2, 180 mg, geometric mean (CV%)): 1250 ng/mL | Cmax [3, 13]: 647 ng/mL | AUC(0-t) [3, 13]: 4750 ng·h/mL | Cmax ([3]; human, plasma, oral, 180 mg, Cycle 2 Day 7, co-administered with T, Arm 2, 180 mg, geometric mean (CV%)): 1010 ng/mL | Cmax [3, 14]: 3300 ng/mL | AUC(0-t) [3, 14]: 21100 ng·h/mL | Cmax [3, 15]: 953 ng/mL | AUC(0-t) [3, 15]: 6280 ng·h/mL | Tmax ([3]; human, plasma, oral, Cycle 2 Day 7, co-administered with T, Arm 2, 240 mg, median (min-max)): 1.5 h | effective doses, dose-dependent antitumor activity [4]: 9.1 to 78 mg/kg | interaction in cell death [5]: synergy | doses with more consistent and pronounced effect on the p53 pathway [6]: 25 to 100 mg/kg | lowest dose affecting the p53 pathway (upregulation of p21 and MIC-1) ([6]; doses as low as): 5 mg/kg
